How the values were obtained:
FAK = FAK (Homo sapiens (Human), UniProt Q05397); experiment: Biochemical assay for FAK activity (LANCE TR-FRET, ULight-poly Glu,Ala,Tyr substrate); conditions: GST-tagged FAK, 120 min reaction
Outline: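 GST-tagged FAK (2.5 nM working stock) with ULight-poly Glu,Ala,Tyr (666 nM stock) and ATP (33.3 μM stock) in Tris pH 7.5/MgCl2/DTT/CHAPS buffer with BSA, 120 min; EDTA-quenched. Phosphorylation read by TR-FRET with Eu-anti-phosphotyrosine (PY20) antibody after 60 min. Compounds tested as 12-point 3-fold dilutions.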

PYK2 = PYK2 (Homo sapiens (Human), UniProt Q14289); experiment: Biochemical assay for PYK2 activity (LANCE TR-FRET, ULight-poly Glu,Ala,Tyr substrate); conditions: GST-tagged PYK2, 40 min reaction
Sequence of PYK2 (Q14289 whole entry): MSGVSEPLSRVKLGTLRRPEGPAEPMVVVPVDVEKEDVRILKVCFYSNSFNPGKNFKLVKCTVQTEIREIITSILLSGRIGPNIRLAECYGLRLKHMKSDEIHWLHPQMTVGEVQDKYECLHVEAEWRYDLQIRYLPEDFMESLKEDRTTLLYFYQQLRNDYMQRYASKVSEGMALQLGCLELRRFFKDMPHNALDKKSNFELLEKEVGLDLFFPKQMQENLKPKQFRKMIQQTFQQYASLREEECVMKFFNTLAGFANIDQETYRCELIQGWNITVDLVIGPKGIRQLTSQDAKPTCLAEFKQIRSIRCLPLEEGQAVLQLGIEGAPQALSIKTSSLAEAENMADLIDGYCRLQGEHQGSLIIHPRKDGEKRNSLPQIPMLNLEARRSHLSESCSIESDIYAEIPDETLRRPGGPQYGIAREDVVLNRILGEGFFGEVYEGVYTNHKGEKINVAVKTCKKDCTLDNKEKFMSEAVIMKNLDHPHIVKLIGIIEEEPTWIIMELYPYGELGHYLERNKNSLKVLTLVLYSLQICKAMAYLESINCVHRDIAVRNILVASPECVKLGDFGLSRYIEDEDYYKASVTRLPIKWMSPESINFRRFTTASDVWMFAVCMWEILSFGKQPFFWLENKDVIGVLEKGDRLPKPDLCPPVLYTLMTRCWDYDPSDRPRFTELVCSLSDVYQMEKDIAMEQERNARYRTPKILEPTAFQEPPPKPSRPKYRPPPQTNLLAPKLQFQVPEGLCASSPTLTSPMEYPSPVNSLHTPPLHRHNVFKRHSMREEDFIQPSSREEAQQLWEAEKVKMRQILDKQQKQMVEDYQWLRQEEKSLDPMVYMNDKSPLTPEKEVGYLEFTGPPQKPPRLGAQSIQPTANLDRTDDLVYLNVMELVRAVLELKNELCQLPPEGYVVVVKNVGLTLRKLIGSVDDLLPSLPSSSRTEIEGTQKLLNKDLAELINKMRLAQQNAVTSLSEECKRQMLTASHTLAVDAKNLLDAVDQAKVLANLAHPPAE
Outline: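 GST-tagged human PYK2 (2 nM working stock) with ULight-poly Glu,Ala,Tyr (1:1:1) peptide (666 nM working stock) and ATP (46.6 μM working stock) in 40 mM Tris pH 7.5, MgCl2, 1 mM DTT, 1 mM CHAPS; 40 min reaction, EDTA quench. Phosphotyrosine read by LANCE Eu-anti-phosphotyrosine (PY20) TR-FRET after 60 min; 12-point 3-fold compound dilutions.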

Sequence of FAK (Q05397 whole entry): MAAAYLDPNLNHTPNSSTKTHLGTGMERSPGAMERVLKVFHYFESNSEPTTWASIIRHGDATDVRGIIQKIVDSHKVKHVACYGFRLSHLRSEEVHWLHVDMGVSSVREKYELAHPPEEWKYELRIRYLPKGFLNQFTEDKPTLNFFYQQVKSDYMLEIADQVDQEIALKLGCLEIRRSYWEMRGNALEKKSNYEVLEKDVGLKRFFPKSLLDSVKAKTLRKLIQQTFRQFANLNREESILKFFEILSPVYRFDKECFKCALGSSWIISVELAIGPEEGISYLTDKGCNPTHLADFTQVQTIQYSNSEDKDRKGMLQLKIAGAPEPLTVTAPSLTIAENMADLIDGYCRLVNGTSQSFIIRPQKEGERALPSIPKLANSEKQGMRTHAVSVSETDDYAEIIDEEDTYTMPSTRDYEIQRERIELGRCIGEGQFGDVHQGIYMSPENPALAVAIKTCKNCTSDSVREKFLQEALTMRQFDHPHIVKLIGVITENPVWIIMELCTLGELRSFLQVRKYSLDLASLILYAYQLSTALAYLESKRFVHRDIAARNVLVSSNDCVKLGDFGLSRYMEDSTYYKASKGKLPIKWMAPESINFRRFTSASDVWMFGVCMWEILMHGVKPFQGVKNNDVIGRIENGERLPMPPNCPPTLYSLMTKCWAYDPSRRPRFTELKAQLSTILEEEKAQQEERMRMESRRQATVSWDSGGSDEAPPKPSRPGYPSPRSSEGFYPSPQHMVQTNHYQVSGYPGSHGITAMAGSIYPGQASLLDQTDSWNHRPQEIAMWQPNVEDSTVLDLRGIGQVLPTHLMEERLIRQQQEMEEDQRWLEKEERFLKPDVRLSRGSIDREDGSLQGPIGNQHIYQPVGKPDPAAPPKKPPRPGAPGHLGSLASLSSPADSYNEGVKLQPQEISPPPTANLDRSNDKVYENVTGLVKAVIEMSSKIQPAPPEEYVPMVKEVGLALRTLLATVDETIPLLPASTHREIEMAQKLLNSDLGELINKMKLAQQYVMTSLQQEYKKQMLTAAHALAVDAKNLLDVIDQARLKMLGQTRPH

Row | SMILES | IC50 (FAK) [µM] | IC50 (PYK2) [µM]
1 | COc1cc(N2CCOCC2)ccc1Nc1nc2c(c(Nc3ccccc3S(=O)(=O)NC(C)(C)C)n1)C1(CC1)CN2 [Example 136, N-tert-butyl-2-(2′-(2-methoxy-4-morpholinophenylamino)-6′,7′-dihydrospiro[cyclopropane-1,5′-pyrrolo[2,3-d]pyrimidine]-4′-ylamino)benzenesulfonamide] | < 0.02 | < 0.02
2 | COc1cc(N2CCOCC2)ccc1Nc1nc2c(c(Nc3ccccc3S(=O)(=O)NCC(C)C)n1)C1(CC1)CN2 [Example 137, N-isobutyl-2-(2′-(2-methoxy-4-morpholinophenylamino)-6′,7′-dihydrospiro[cyclopropane-1,5′-pyrrolo[2,3-d]pyrimidine]-4′-ylamino)benzenesulfonamide] | < 0.02 | < 0.02
3 | COc1cc(N2CCOCC2)ccc1Nc1nc2c(c(Nc3ccccc3S(=O)(=O)NC(C)C)n1)C1(CC1)CN2 [Example 138, N-isopropyl-2-(2′-(2-methoxy-4-morpholinophenylamino)-6′,7′-dihydrospiro[cyclopropane-1,5′-pyrrolo[2,3-d]pyrimidine]-4′-ylamino)benzenesulfonamide] | < 0.02 | < 0.02
4 | CCNS(=O)(=O)c1ccccc1Nc1nc(Nc2ccc(N3CCOCC3)cc2OC)nc2c1C1(CC1)CN2 [Example 139, N-ethyl-2-(2′-(2-methoxy-4-morpholinophenylamino)-6′,7′-dihydrospiro[cyclopropane-1,5′-pyrrolo[2,3-d]pyrimidine]-4′-ylamino)benzenesulfonamide] | < 0.02 | < 0.02
5 | COc1cc(N2CCOCC2)ccc1Nc1nc2c(c(Nc3ccccc3S(=O)(=O)NCC3CC3)n1)C1(CC1)CN2 [Example 140, N-(cyclopropylmethyl)-2-(2′-(2-methoxy-4-morpholinophenylamino)-6′,7′-dihydrospiro[cyclopropane-1,5′-pyrrolo[2,3-d]pyrimidine]-4′-ylamino)benzenesulfonamide] | < 0.02 | < 0.02
6 | COCCNS(=O)(=O)c1ccccc1Nc1nc(Nc2ccc(N3CCOCC3)cc2OC)nc2c1C1(CC1)CN2 [Example 141, 2-(2′-(2-methoxy-4-morpholinophenylamino)-6′,7′-dihydrospiro[cyclopropane-1,5′-pyrrolo[2,3-d]pyrimidine]-4′-ylamino)-N-(2-methoxyethyl)benzenesulfonamide] | < 0.02 | < 0.02
7 | COc1cc(N2CCOCC2)ccc1Nc1nc2c(c(Nc3ccccc3S(=O)(=O)NCCO)n1)C1(CC1)CN2 [Example 142, N-(2-hydroxyethyl)-2-(2′-(2-methoxy-4-morpholinophenylamino)-6′,7′-dihydrospiro[cyclopropane-1,5′-pyrrolo[2,3-d]pyrimidine]-4′-ylamino)benzenesulfonamide] | > 1 | > 1
8 | COc1cc(N2CCOCC2)ccc1Nc1nc2c(c(Nc3ccccc3S(=O)(=O)Nc3ccccc3)n1)C1(CC1)CN2 [Example 143, 2-(2′-(2-methoxy-4-morpholinophenylamino)-6′,7′-dihydrospiro[cyclopropane-1,5′-pyrrolo[2,3-d]pyrimidine]-4′-ylamino)-N-phenylbenzenesulfonamide] | < 0.1 | < 0.2
9 | C=CCNS(=O)(=O)c1ccccc1Nc1nc(Nc2ccc(N3CCOCC3)cc2OC)nc2c1C1(CC1)CN2 [Example 144, N-allyl-2-(2′-(2-methoxy-4-morpholinophenylamino)-6′,7′-dihydrospiro[cyclopropane-1,5′-Pyrrolo[2,3-d]pyrimidine]-4′-ylamino)benzenesulfonamide] | < 0.02 | < 0.02
10 | COc1cc(N2CCOCC2)ccc1Nc1nc2c(c(Nc3ccccc3S(=O)(=O)NC3CCCC3)n1)C1(CC1)CN2 [Example 145, N-cyclopentyl-2-(2′-(2-methoxy-4-morpholinophenylamino)-6′,7′-dihydrospiro[cyclopropane-1,5′-pyrrolo[2,3-d]pyrimidine]-4′-ylamino)benzenesulfonamide] | < 0.1 | < 0.1
11 | COc1cc(N2CCOCC2)ccc1Nc1nc2c(c(Nc3ccccc3S(=O)(=O)NC3CC3)n1)C1(CC1)CN2 [Example 146, N-cyclopropyl-2-(2′-(2-methoxy-4-morpholinophenylamino)-6′,7′-dihydrospiro[cyclopropane-1,5′-pyrrolo[2,3-d]pyrimidine]-4′-ylamino)benzenesulfonamide] | > 1 | > 1
12 | CCCNS(=O)(=O)c1ccccc1Nc1nc(Nc2ccc(N3CCOCC3)cc2OC)nc2c1C1(CC1)CN2 [Example 148, 2-(2′-(2-methoxy-4-morpholinophenylamino)-6′,7′-dihydrospiro[cyclopropane-1,5′-pyrrolo[2,3-d]pyrimidine]-4′-ylamino)-N-propylbenzenesulfonamide] | < 0.02 | < 0.02
13 | COc1cc(N2CCOCC2)ccc1Nc1nc2c(c(Nc3ccccc3S(=O)(=O)NC3CCCCC3)n1)C1(CC1)CN2 [Example 149, N-cyclohexyl-2-(2′-(2-methoxy-4-morpholinophenylamino)-6′,7′-dihydrospiro[cyclopropane-1,5′-pyrrolo[2,3-d]pyrimidine]-4′-ylamino)benzenesulfonamide] | < 0.5 | < 0.5
14 | COc1cc(N2CCOCC2)ccc1Nc1nc2c(c(Nc3ccccc3S(=O)(=O)NC3CCC3)n1)C1(CC1)CN2 [Example 150, N-cyclobutyl-2-(2′-(2-methoxy-4-morpholinophenylamino)-6′,7′-dihydrospiro[cyclopropane-1,5′-pyrrolo[2,3-d]pyrimidine]-4′-ylamino)benzenesulfonamide] | < 0.02 | < 0.02
15 | COc1cc(N2CCOCC2)ccc1Nc1nc2c(c(Nc3ccccc3S(=O)(=O)N(C)C)n1)C1(CC1)CN2 [Example 151, 2-(2′-(2-methoxy-4-morpholinophenylamino)-6′,7′-dihydrospiro[cyclopropane-1,5′-pyrrolo[2,3-d]pyrimidine]-4′-ylamino)-N,N-dimethylbenzenesulfonamide] | < 0.02 | < 0.02
16 | CNC(=O)c1ccccc1Nc1nc(Nc2ccc(N3CCOCC3)cc2OC)nc2c1C1(CC1)CN2 [Example 152, 2-(2′-(2-methoxy-4-morpholinophenylamino)-6′,7′-dihydrospiro[cyclopropane-1,5′-pyrrolo[2,3-d]pyrimidine]-4′-ylamino)-N-methylbenzamide] | < 0.05 | < 0.02
17 | COc1cc(N2CCOCC2)ccc1Nc1nc2c(c(Nc3ccc(F)c(F)c3)n1)C1(CC1)CN2 [Example 153, N^4′-(3,4-difluorophenyl)-N^2′-(2-methoxy-4-morpholinophenyl)-6′,7′-dihydrospiro[cyclopropane-1,5′-pyrrolo[2,3-d]pyrimidine]-2′,4′-diamine] | < 0.2 | < 0.5
18 | COc1cc(N2CCOCC2)ccc1Nc1nc2c(c(Nc3cccc(C)n3)n1)C1(CC1)CN2 [Example 154, N^2′-(2-methoxy-4-morpholinophenyl)-N^4′-(6-methylpyridin-2-yl)-6′,7′-dihydrospiro[cyclopropane-1,5′-pyrrolo[2,3-d]pyrimidine]-2′,4′-diamine] | < 0.05 | < 0.1
19 | COc1cc(N2CCOCC2)ccc1Nc1nc2c(c(Nc3ccccc3NC(C)=O)n1)C1(CC1)CN2 [Example 155, N-(2-(2′-(2-methoxy-4-morpholinophenylamino)-6′,7′-dihydrospiro[cyclopropane-1,5′-pyrrolo[2,3-d]pyrimidine]-4′-ylamino)phenyl)acetamide] | < 0.05 | < 0.05
20 | COc1cc(N2CCOCC2)ccc1Nc1nc2c(c(Nc3ccccc3N(C)S(C)(=O)=O)n1)C1(CC1)CN2 [Example 156, N-(2-(2′-(2-methoxy-4-morpholinophenylamino)-6′,7′-dihydrospiro[cyclopropane-1,5′-pyrrolo[2,3-d]pyrimidine]-4′-ylamino)phenyl)-N-methylmethanesulfonamide] | < 0.02 | < 0.02
21 | CNS(=O)(=O)c1ccccc1Nc1nc(Nc2cc(OC)c(OC)c(OC)c2)nc2c1C1(CC1)CN2 [Example 157, N-methyl-2-(2′-(3,4,5-trimethoxyphenylamino)-6′,7′-dihydrospiro[cyclopropane-1,5′-pyrrolo[2,3-d]pyrimidine]-4′-ylamino)benzenesulfonamide] | < 0.02 | < 0.02
22 | CNC(=O)c1ccccc1Nc1nc(Nc2ccc(N3CCOCC3)cc2)nc2c1CCN2 [Example 158, N-methyl-2-(2-(4-morpholinophenylamino)-6,7-dihydro-5H-pyrrolo[2,3-d]pyrimidin-4-ylamino)benzamide] | < 0.1 | < 0.1
23 | CNC(=O)c1ccccc1Nc1nc(Nc2ccccc2OC)nc2c1CCN2 [Example 159, 2-(2-(2-methoxyphenylamino)-6,7-dihydro-5H-pyrrolo[2,3-d]pyrimidin-4-ylamino)-N-methylbenzamide] | < 0.2 | < 0.2
24 | COc1cc(N2CCOCC2)ccc1Nc1nc2c(c(Nc3ccccc3C(=O)O)n1)CCN2 [Example 160, 2-(2-(2-methoxy-4-morpholinophenylamino)-6,7-dihydro-5H-pyrrolo[2,3-d]pyrimidin-4-ylamino)benzoic acid] | < 0.5 | < 1
25 | COc1cc(N2CCOCC2)ccc1Nc1nc2c(c(Nc3ccccc3C=O)n1)CCN2 [Example 161, 2-(2-(2-methoxy-4-morpholinophenylamino)-6,7-dihydro-5H-pyrrolo[2,3-d]pyrimidin-4-ylamino)benzaldehyde] | < 1 | < 1

Source: US9428508B2, “2,4-diamino-6,7-dihydro-5H-pyrrolo[2,3]pyrimidine derivatives as FAK/Pyk2 inhibitors” (Centaurus BioPharma Co., Ltd., priority 2011, dated 2016)
